{
  "source": "patent US20240033244A1",
  "about": "“COMPOSITIONS AND METHODS FOR INHIBITING YTHDF1” (SHANGHAI INSTITUTE OF MATERIA MEDICA, CHINESE ACADEMY OF …, priority 2020, published 2024)",
  "key": {"[1]": {"molecular_target": "T1, YTHDF1 mutant N378A (Homo sapiens, UniProt Q9BYJ9, N378A)", "T1 construct": "GST (N, cleaved yes); made in house; host or cells: E. coli BL21 (DE3)", "T1 sequence (Q9BYJ9 with tags, fused parts or gaps N378A)": "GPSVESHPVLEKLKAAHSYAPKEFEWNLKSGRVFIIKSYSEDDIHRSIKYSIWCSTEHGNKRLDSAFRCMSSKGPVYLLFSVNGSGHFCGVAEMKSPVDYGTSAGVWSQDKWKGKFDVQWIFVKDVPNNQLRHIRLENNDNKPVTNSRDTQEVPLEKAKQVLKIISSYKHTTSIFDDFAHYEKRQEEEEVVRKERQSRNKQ", "assay": "FP assay with YTHDF1 mutant N378A", "type": "binding", "method": "The protein YTHDF1 (361-559) (SEQ ID NO: 2) and its mutants (SEQ ID NOs: 4-13) were cloned into pGEx-6P-1 vector (obtained from YouBio Co, Ltd, Catalog NO: VT1258), and the His-YTHDF1 (361-559) (SEQ ID NO: 3) used in AlphaScreen Assay was cloned into modified pET28a vector (obtained from YouBio Co, Ltd, Catalog NO: VT1207). The vectors were transformed into E. coli BL21 (DE3) cells and cultured at 37° C. When OD value reached 0.6˜0.8, 1 mM Isopropyl-β-D-thiogalactopyranoside was added to overexpress the protein at 16° C. overnight. […] Then, the proteins were further purified via cation exchange (HiTrap SP, GE Healthcare) and finally through a Superdex 75 10/300 column (GE Healthcare). At last, the purified YTHDF1(361-559) and the mutants were kept in buffer which contains 20 mM Hepes (pH 7.4) and 200 mM NaCl. For His-YTHDF1 (361-559), the protein was purified via Ni-NTA chromatography (HisTrap FF, GE Healthcare), followed by cation exchange and Superdex 75 10/300 column in sequence. And the obtained protein was kept in the buffer with the same ingredients.\nAll of the YTHDF1 (361-559), the 5′-FAM labeled m^6A-containing mRNA (5′-FAM-[…] (m^6A) CUGUG-3′, SEQ ID NO: 14) and the candidate compounds were diluted with assay buffer (20 mM Hepes (pH 7.4), 50 mM NaCl, 0.01% (v/v) tween 20, 5% (v/v) glycerol). […] At last, the mixtures were measured by Envision Readers (PerkinElmer). […]"}, "[2]": {"test_system": "FLT3L-DCs", "assay": "FLT3L-DC cross-priming of OT-I T cells in vitro (IFN-γ cytometric bead array)", "type": "cell-based, mouse", "settings": "10 μM SAA 12 hours", "method": "Bone marrow was isolated from wild-type and Ythdf1^−/− mice and treated with red cell lysis buffer to remove red blood cell. IMDM medium containing 10% fetal bovine serum was used to suspend bone marrow cells. To culture FLT3L-DCs, cell concentration was adjusted to 1×10^6/mL. Cells were cultured with 100 ng/mL FLT3L for 9 days to get mature FLT3L-DCs. Mature FLT3L-DCs were purified via EasySep Mouse CD11c Positive Selection Kit II, then treated with 10 μM SAA or DMSO in IMDM medium (contain 10% bovine and 100 ng/mL FLT3L) for 10 hours.\nFor in vitro cross-presentation study, mature FLT3L-DCs were harvested on day 9 and purified by EasySep Mouse CD11 c Positive Selection Kit II, then treated with 10 μM SAA or DMSO in IMDM medium (contain 10% bovine and 100 ng/mL FLT3L) for 10 h. […] Then antigen-obtained DCs were purified and co-cultured with naïve T cells from OT-1 mice at a ratio of 1:10 for 96 h. The co-culture medium was 1640 RPMI contains 10% fetal bovine with or without 1 μg/mL OT-1 (OVA 257-264) peptide. […] Supernatant IFN-γ production was detected via CBA assay.\nBone marrow derived cells (wildtype or Ythdf1 gene deficient) were cultured with FLT3L for 9 days to get FLT3L-DC and these DCs were treated with 10 μM SAA for 12 hours, then, FLT3L-DCs were co-cultured with necrotic B16-OVA tumor cell for 6 hours. […] IFN-γ production was assessed by IFN-γ cytometric bead array."}},
  "data": [
    {"molecule": "O=C(/C=C/c1ccc(O)c(O)c1/C=C/c1ccc(O)c(O)c1)O[C@H](Cc1ccc(O)c(O)c1)C(=O)O", "note": "[SAA, Salvianolic Acid A]", "values": [
      {"measurement": "inhibitory activity against mutant binding to m6A versus wildtype", "setting": "[1]", "value": "significantly weaker than that against wildtype YTHDF1"},
      {"measurement": "cross-presentation function (IFN-γ production)", "setting": "[2]; Ythdf1-/- FLT3L-DCs", "value": "could also promote the cross-presentation function"},
      {"measurement": "cross-priming of T cells (IFN-γ production)", "setting": "[2]; wildtype FLT3L-DCs", "value": "better ability in cross-priming T cells than control group"}
    ]}
  ]
}
